Patent publication US9012395B2, “Treatment of extracellular matrix to reduce inflammation” (The Cleveland Clinic Foundation, priority 2011, dated 2015)

Assay: Solubility of HA

Q: With hyaluronan [HA] as the substance, how does the “Concentration of HA solutions that can be prepared” value read?
A: ≥ 20000 µg/mL
